Data from patent US10131652B2, “Pyrimidinyloxy benzene derivatives as herbicides” (E. I. DU PONT DE NEMOURS AND COMPANY, priority 2014, dated 2018).

Tests used:
Assay type in all cases: in vivo
[1] = test system: Italian ryegrass (Lolium multiflorum); experiment: Test B pre-/postemergence plant response
Summary of the method: (§1)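 Visual injury scores on a 0–100 scale (100 = complete control) relative to untreated plants, taken about 10 days post-treatment in greenhouse. Treatments were a directed preemergence soil spray and a postemergence spray at one- to two-leaf stage, using surfactant-containing solvent formulation.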

[2] = test system: kochia (Kochia scoparia); experiment: Test B pre-/postemergence plant response
Summary of the method: as §1

[3] = test system: ragweed (common ragweed, Ambrosia elatior); experiment: Test B pre-/postemergence plant response
Summary of the method: as §1

[4] = test system: Italian ryegrass (Lolium multiflorum); experiment: Test D pre-/postemergence plant response
Summary of the method: (§2)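 Visual rating, 0–100 scale (0 = no effect, 100 = complete control), versus untreated controls 13 to 15 days after treatment in greenhouse. Preemergence: seeds in loam/sand soil. Postemergence: 2 to 18 cm plants, 1- to 4-leaf stage, peat-based medium. Compounds formulated in non-phytotoxic solvent plus surfactant.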

[5] = test system: barnyardgrass (Echinochloa crus-galli); experiment: Test D pre-/postemergence plant response
Summary of the method: as §2

[6] = test system: blackgrass (Alopecurus myosuroides); experiment: Test D pre-/postemergence plant response
Summary of the method: as §2

[7] = test system: corn (Zea mays); experiment: Test D pre-/postemergence plant response
Summary of the method: as §2

[8] = test system: galium (catchweed bedstraw, Galium aparine); experiment: Test D pre-/postemergence plant response
Summary of the method: as §2

[9] = test system: giant foxtail (Setaria faberii); experiment: Test D pre-/postemergence plant response
Summary of the method: as §2

[10] = test system: large (Lg) crabgrass (Digitaria sanguinalis); experiment: Test D pre-/postemergence plant response
Summary of the method: as §2

[11] = test system: oilseed rape (Brassica napus); experiment: Test D pre-/postemergence plant response
Summary of the method: as §2

[12] = test system: pigweed (Amaranthus retroflexus); experiment: Test D pre-/postemergence plant response
Summary of the method: as §2

[13] = test system: ragweed (common ragweed, Ambrosia elatior); experiment: Test D pre-/postemergence plant response
Summary of the method: as §2

[14] = test system: yellow nutsedge (Cyperus esculentus); experiment: Test D pre-/postemergence plant response
Summary of the method: as §2

[15] = 125 g ai/ha, postemergence, 0 to 100 scale, 0 no effect, 100 complete control
[16] = Postemergence, 500 g ai/ha, 0 to 100 scale (0 no effect, 100 complete control)
[17] = Preemergence, 125 g ai/ha, 0 to 100 scale (0 no effect, 100 complete control)
[18] = Preemergence, 500 g ai/ha, 0 to 100 scale where 0 is no effect and 100 is complete control
[19] = Postemergence, 31 g ai/ha, scale 0 to 100 (0 no effect, 100 complete control)
[20] = Postemergence, 62 g ai/ha, scale 0 to 100, 0 no effect, 100 complete control
[21] = Postemergence, 125 g ai/ha, scale 0 to 100, 0 no effect, 100 complete control
[22] = Preemergence, 16 g ai/ha, scale 0 to 100 (0 no effect, 100 complete control)
[23] = Preemergence, 31 g ai/ha, scale 0 to 100 (0 no effect, 100 complete control)
[24] = Preemergence, 62 g ai/ha, scale 0 to 100 (0 no effect, 100 complete control)

N#Cc1cccc(Oc2ncc(Cl)cn2)c1-c1cc(C(F)F)on1 [Compound 180]
Plant response rating, Ryegrass, Italian [1, 15]: 100 | Plant response rating, Ryegrass, Italian [1, 16]: 100 | Ryegrass, Italian plant response rating [1, 17]: 20 | Plant response rating, Ryegrass, Italian [1, 18]: 70 | Plant response rating, Kochia [2, 15]: 100 | Plant response rating, Kochia [2, 16]: 100 | Kochia plant response rating [2, 17]: 100 | Plant response rating, Kochia [2, 18]: 100 | Plant response rating, Ragweed [3, 15]: 50 | Plant response rating, Ragweed [3, 16]: 70 | Ragweed plant response rating [3, 17]: 50 | Plant response rating, Ragweed [3, 18]: 70 | Plant response rating (scale 0 to 100), Ryegrass, Italian ([4]; Postemergence, 16 g ai/ha): 0 | Ryegrass, Italian plant response rating [4, 19]: 0 | Ryegrass, Italian plant response rating [4, 20]: 5 | Plant response rating, Ryegrass, Italian [4, 21]: 20 | Plant response rating (scale 0 to 100), Ryegrass, Italian ([4]; Preemergence, 125 g ai/ha): 65 | Plant response rating, Ryegrass, Italian [4, 22]: 0 | Plant response rating, Ryegrass, Italian [4, 23]: 0 | Plant response rating, Ryegrass, Italian [4, 24]: 50 | Plant response rating (scale 0 to 100), Barnyardgrass ([5]; Postemergence, 16 g ai/ha): 0 | Barnyardgrass plant response rating [5, 19]: 0 | Plant response rating, Barnyardgrass [5, 20]: 5 | Plant response rating, Barnyardgrass [5, 21]: 5 | Plant response rating (scale 0 to 100), Barnyardgrass ([5]; Preemergence, 125 g ai/ha): 80 | Plant response rating, Barnyardgrass [5, 22]: 0 | Plant response rating, Barnyardgrass [5, 23]: 0 | Plant response rating, Barnyardgrass [5, 24]: 35 | Plant response rating (scale 0 to 100), Blackgrass ([6]; Postemergence, 16 g ai/ha): 0 | Blackgrass plant response rating [6, 19]: 0 | Plant response rating, Blackgrass [6, 20]: 5 | Plant response rating, Blackgrass [6, 21]: 5 | Plant response rating (scale 0 to 100), Blackgrass ([6]; Preemergence, 125 g ai/ha): 70 | Plant response rating, Blackgrass [6, 22]: 0 | Plant response rating, Blackgrass [6, 23]: 0 | Plant response rating, Blackgrass [6, 24]: 60 | Plant response rating (scale 0 to 100), Corn ([7]; Postemergence, 16 g ai/ha): 5 | Corn plant response rating [7, 19]: 5 | Plant response rating, Corn [7, 20]: 10 | Plant response rating, Corn [7, 21]: 15 | Plant response rating (scale 0 to 100), Corn ([7]; Preemergence, 125 g ai/ha): 30 | Plant response rating, Corn [7, 22]: 0 | Plant response rating, Corn [7, 23]: 0 | Plant response rating, Corn [7, 24]: 5 | Plant response rating (scale 0 to 100), Galium ([8]; Postemergence, 16 g ai/ha): 65 | Galium plant response rating [8, 19]: 75 | Plant response rating, Galium [8, 20]: 100 | Plant response rating, Galium [8, 21]: 100 | Plant response rating (scale 0 to 100), Galium ([8]; Preemergence, 125 g ai/ha): 98 | Plant response rating, Galium [8, 22]: 75 | Plant response rating, Galium [8, 23]: 80 | Plant response rating, Galium [8, 24]: 98 | Plant response rating (scale 0 to 100), Foxtail, Giant ([9]; Postemergence, 16 g ai/ha): 60 | Foxtail, Giant plant response rating [9, 19]: 50 | Plant response rating, Foxtail, Giant [9, 20]: 30 | Plant response rating, Foxtail, Giant [9, 21]: 45 | Plant response rating (scale 0 to 100), Foxtail, Giant ([9]; Preemergence, 125 g ai/ha): 100 | Plant response rating, Foxtail, Giant [9, 22]: 5 | Plant response rating, Foxtail, Giant [9, 23]: 60 | Plant response rating, Foxtail, Giant [9, 24]: 85 | Plant response rating (scale 0 to 100), Crabgrass, Large ([10]; Postemergence, 16 g ai/ha): 5 | Crabgrass, Large plant response rating [10, 19]: 5 | Plant response rating, Crabgrass, Large [10, 20]: 5 | Plant response rating, Crabgrass, Large [10, 21]: 5 | Plant response rating (scale 0 to 100), Crabgrass, Large ([10]; Preemergence, 125 g ai/ha): 100 | Plant response rating, Crabgrass, Large [10, 22]: 30 | Plant response rating, Crabgrass, Large [10, 23]: 75 | Plant response rating, Crabgrass, Large [10, 24]: 100 | Plant response rating (scale 0 to 100), Oilseed Rape ([11]; Postemergence, 16 g ai/ha): 5 | Oilseed Rape plant response rating [11, 19]: 60 | Oilseed Rape plant response rating [11, 20]: 80 | Plant response rating, Oilseed Rape [11, 21]: 90 | Plant response rating (scale 0 to 100), Oilseed Rape ([11]; Preemergence, 125 g ai/ha): 100 | Plant response rating, Oilseed Rape [11, 22]: 70 | Plant response rating, Oilseed Rape [11, 23]: 95 | Plant response rating, Oilseed Rape [11, 24]: 100 | Plant response rating (scale 0 to 100), Pigweed ([12]; Postemergence, 16 g ai/ha): 70 | Pigweed plant response rating [12, 19]: 75 | Pigweed plant response rating [12, 20]: 75 | Plant response rating, Pigweed [12, 21]: 98 | Plant response rating (scale 0 to 100), Pigweed ([12]; Preemergence, 125 g ai/ha): 100 | Plant response rating, Pigweed [12, 22]: 80 | Plant response rating, Pigweed [12, 23]: 98 | Plant response rating, Pigweed [12, 24]: 100 | Plant response rating (scale 0 to 100), Ragweed ([13]; Postemergence, 16 g ai/ha): 30 | Ragweed plant response rating [13, 19]: 40 | Ragweed plant response rating [13, 20]: 35 | Plant response rating, Ragweed [13, 21]: 65 | Plant response rating (scale 0 to 100), Ragweed ([13]; Preemergence, 125 g ai/ha): 55 | Plant response rating, Ragweed [13, 22]: 0 | Plant response rating, Ragweed [13, 23]: 5 | Plant response rating, Ragweed [13, 24]: 15 | Plant response rating (scale 0 to 100), Nutsedge, Yellow ([14]; Postemergence, 16 g ai/ha): 0 | Nutsedge, Yellow plant response rating [14, 19]: 0 | Nutsedge, Yellow plant response rating [14, 20]: 10 | Plant response rating, Nutsedge, Yellow [14, 21]: 15 | Plant response rating (scale 0 to 100), Nutsedge, Yellow ([14]; Preemergence, 125 g ai/ha): 30 | Plant response rating, Nutsedge, Yellow [14, 22]: 0 | Plant response rating, Nutsedge, Yellow [14, 23]: 0 | Plant response rating, Nutsedge, Yellow [14, 24]: 0
